Holding throughout (assay type): in vivo, rat
The subject of assay [1] is rats. Description: Systemic inflammatory hyperalgesia induced by intraperitoneal ET; PP and TF tests. Conditions: TAP 25 μg i.p. thirty minutes before ET 50 μg i.p. The procedure: In the second model, the rats receive an intraperitoneal injection of endotoxin ([…] in 100 μl of physiological saline solution).
Protocol 2(a): One group of rats received one intraperitoneal injection of ET (50 μg), while the other group was pretreated with the protein analogue of thymuline (TAP) (25 μg, intraperitoneal injection), 30 minutes before the injection of ET.
The TF and PP tests were then done at 1 hour, 3 hours and 6 hours after the injection of ET.

The subject of assay [2] is rats. Description: Visceral pain induced by intraperitoneal injection of capsaicin; 4-level behavioral scale. The procedure: This test consisted of injecting (i.p.) 20 μg of capsaicin in 100 μl of a 10% solution Tween 20 in olive oil in some rats and observing the behavior induced by these injections. A 4-level behavioral scale was designed according to the method described by Giesler G J et al., (1976, Inhibition of visceral pain by electrical stimulation of the periaqueductal gray matter, Pain 2:43-48).
The levels were defined as follows: 0=normal behavior; 1=slight contraction of the abdominal muscles; 2=contraction of one single side and luxation of the haunch dropping; 3=significant contraction of the abdominal muscles and extension of the two rear paws.
For the evaluation of the animals' behavior, each rat was placed in transparent cage placed over a mirror inclined at 45° for optimum observation.
[…] None of the two observers knew the injection administered nor the expected effects.
For the injection i.p. of the capsaicin, the total time corresponding to each behavioral level was measured for the animals having received the capsaicin alone or the capsaicin after the TAP. The variation of the neuropathic manifestations or of the pain tests after the treatments were evaluated by ANOVA then by Bonfrerroni tests done post hoc. The variations of the pain scores with or without treatment were evaluated by the Student bilateral test by assuming a significance level of 5% (p<0.05).

Assay [3] relates to rats. Description: Localized inflammatory hyperalgesia induced by intraplantar injection of endotoxin (ET); PP, PI, HP, TF pain tests. Here is the method:
The experiments were conducted using adult, male Sprague-Dewless rats weighing between 200 and 250 g. The animals were reared under optimum conditions of light and temperature (12 h light and shadow cycle; 22±3° C.). Food and water were dispensed ad libitum. All of the experiments were conducted in compliance with the ethical directives relative to pain experiments done on animals in the conscious state (Zimmermann M., 1983, Ethical guidelines for investigations of experimental pain in conscious animals, Pain, 16:109-110) and they were approved by the Institutional Review Board for animal care.
Thermal and mechanical pain tests were done over a period of 3 consecutive days prior to the injections, in order to establish a baseline.
The mechanical nociceptive threshold was determined by the mechanical paw pressure test (PP), while that of the thermal nociceptive threshold was determined using the hot-plate (HP), the paw immersion in hot water (PI) and the tail flick (TF) tests.
The PP test is done by applying a constant pressure of 0.20 g/cm^2 alternatingly to the left and right hind paws in an interval of 5 minutes between 2 consecutive pressure applications.
In the HP test, the animals are placed individually on a hot plate (52.5° C.±0.3° C.). The pain threshold is measured by the latency period lapsed between the moment, at which the animal is placed on the hot plate and the first sign of pain, indicated by the fact that the animal licks the paw or jumps.
In the PI test, the hind paws are wetted alternately in distilled water at 48° C. and the latency time lapsed until the first sign of withdrawal of the paw is noted.
In the TF test, the tail of each animal is immersed in distilled water at 50.5° C. The latency time taken by the animal to withdraw it is noted. The results are based on 3 consecutive trials done in 5 minute intervals.
In the so-called localized model, the rats received on intraplantar injection of a solution (1.25 μg in 50 μl of […]) of endotoxin (Salmonella typhasa lipopolysaccharides, Sigma) into one of the hind paws, which induces both thermal and mechanical hyperalgesia restricted to the paw having received the injection.
Various treatments are then possible • Protocol 1(a): different groups of rats (n=5 in each group) were treated with the analogue peptide (TAP) Glu-Ala-lys-Ser-Gln-Gly-Gly-Ser-Asp (synthesized by Quantum Biotechnologies, Inc., Canada), in the following fashion : • either, they received one intraperitoneal injection (25 μg in 50 μl of physiological saline solution) of this peptide; • or, they were pretreated with different doses of this peptide (1.5 and 25 μg in 50 μl of sodium chloride) by intraperitoneal injection, 30 minutes prior to injection of endotoxins (ET) (1.25 μg in 50 μl of physiological saline solution by intraplantar injection). • Protocol 1(b): other experiments looked at comparing the efficacy of the analog peptides with that of steroids, NSAIDs and peptides known for their antagonism of the hyperalgesia induced by IL-1β and the prostaglandins.
One group of rats was pretreated with intraperitoneal injections of Lys-D-Pro-Thr (10 mg/kg) in 100 μl of physiological saline solution, 30 minutes prior to injection of TAP. This tripeptide is know for its antagonism of the hyperalgesia induced by IL-1β only.
In the second group, the rats received intraperitoneal injections of the Lys-D-Pro-Val tripeptide (10 mg/kg) in 100 μl of saline solution, 30 minutes prior to the injection of TAP. Lys-D-Pro-Val is an antagonist of the hyperalgesia induced by IL-1β and PEG2.
A third and a fourth group were treated with dexamethasone and indomethacin.
Dexamethasone phosphate dissolved in a […] sodium solution was injected, at a concentration of 200 μg/kg, just before and 3 hours after the injection of ET. […]

Results on one substance are retold here after patent US20050261194A1, “Use of thymulin-like peptides for making pain-relieving medicines” (priority 2001, published 2005).

Turning to “Glu-Ala-lys-Ser-Gln-Gly-Gly-Ser-Asp (SQGGSD; N-terminal Glu-Ala-Lys; printed: Ser-Gln-Gly-Gly-Ser-Asp) [TAP]”, the “effect on mechanical hyperalgesia (PP test)” value with rats [1] (FIG. 4A) is recorded as “abolished”. Moreover, the “effect on thermal hyperalgesia (TF test)” value in the assay on rats [1] (FIG. 4B) is given as “abolished”. In addition, the “effect on nociception scores induced by capsaicin” value in the assay with rats [2] (TAP 50 μg before capsaicin 20 μg i.p., FIG. 9) was “significant shift to the left”. Also, the “time at behavioral level 0” value with rats [2] (TAP 50 μg in 200 μl/rat before capsaicin 20 μg i.p., capsaicin alone 0.2±0.3, 36 minutes observation) was determined as 0.82 ± 0.18 min. Also, in the assay with rats [2] (TAP 50 μg in 200 μl/rat before capsaicin 20 μg i.p., capsaicin alone 2.51±0.45, 36 minutes observation), the “time at behavioral level 1” value is 12.89 ± 2.5 min. In addition, the “time at behavioral level 3” value with rats [2] (TAP 50 μg in 200 μl/rat before capsaicin 20 μg i.p., capsaicin alone 11.84±0.43, 36 minutes observation) was 6.67 ± 0.09 min. In the assay with rats [2] (TAP 50 μg in 200 μl/rat before capsaicin 20 μg i.p., capsaicin alone 21.5±0.8, 36 minutes observation), the “time at behavioral level 2” value was determined as 15.62 ± 0.9 min. For the same substance, the “effect compared with indomethacin and dexamethasone” value in the assay with rats [3] (ET 1.25 μg intraplantar, indomethacin 4 mg/kg, dexamethasone 200 μg/kg, FIG. 2) is “effects similar to those of indomethacin and dexamethasone but at much lower concentrations”. The “analgesic efficacy compared with Lys-D-Pro-Val and Lys-D-Pro-Thr peptides” value with rats [3] (ET 1.25 μg intraplantar, tripeptides 10 mg/kg i.p., FIG. 2) was “much more efficacious analgesic agent”. Moreover, in the assay on rats [3] (TAP 25 μg i.p. 30 min before ET 1.25 μg intraplantar, 9 h after ET, ET alone 0.87±0.09 s, saline 2.06±0.06 s), the “latency, paw pressure (PP) test” value came out at 2.05 ± 0.07 s. The “latency, paw immersion (PI) test” value in the assay on rats [3] (TAP 25 μg i.p. 30 min before ET 1.25 μg intraplantar, 9 h after ET, ET alone 1.25±0.04 s, saline 1.97±0.05 s) amounted to 1.94 ± 0.005 s. In addition, the “latency, tail flick (TF) test” value in the assay on rats [3] (TAP 25 μg i.p. 30 min before ET 1.25 μg intraplantar, 9 h after ET, ET alone 2.40±0.06 s, saline 3.19±0.08 s) worked out at 3.22 ± 0.09 s. Moreover, the “latency, hot-plate (HP) test” value in the assay on rats [3] (TAP 25 μg i.p. 30 min before ET 1.25 μg intraplantar, 9 h after ET, ET alone 6.0±0.18, saline 9.24±0.16 s) came out at 9.12 ± 0.7 s. The “effect on hyperalgesia induced by intraplantar ET” value with rats [3] (TAP 1.5 and 25 μg i.p. pretreatment, FIG. 1) is recorded as “reduced in dose-dependent fashion the hyperalgesia”. Moreover, in the assay on rats [3] (TAP alone 25 μg in 50 μl saline i.p., no ET), the “change in latency time in the pain tests, TAP alone” value was “did not result in significant change in the latency time”.
